# Where a name gives a salt, the structure may show the parent alone. Read-outs that look alike come from different tables or passages of the source.
# What was measured:
# Wistar male rats [1] = conditions: iv; for Area of plasma insulin, test compound-administered group: after glucose-loading (10 mg/kg iv)
# Description: Wistar male rats (body weight: about 250 g) starved for 18 hours were anesthetized by intraperitoneal administration of sodium pentobarbital (50 mg/kg), and fixed at the dorsal position. Cannulas were inserted into the right common carotid artery for blood collection and the left femoral vein for administration of drug and glucose, respectively. To these rats were intravenously administered 500 U/kg of heparin to prevent blood coagulation. After about 0.2 ml of blood was collected, a drug was intravenously administered. Two minutes after the administration of the drug, blood was collected, and then glucose (10 mg/kg) was immediately administered intravenously. Then, blood was collected every 20 seconds for 2 minutes. Insulin concentration in plasma obtained by centrifugation was measured by radioimmunoassay. From an insulin concentration which increased after the glucose-loading, its area was calculated and considered the amount of secreted insulin. The insulin level was indicated as the amount of rat insulin (ng/mL).
# dd male mice = assay: Acute toxicity test (minimum lethal dose); format: in vivo; conditions: po, mortality after seven days
# Description: A test compound was orally administered to dd male mice (body weight: 20±1 g, n=3). Mortality rate after seven days was measured to determine minimum lethal dose (MLD).
# MIN6 cell = assay: Insulin secretion enhancing action in cultured β-cell (MIN6); format: cell-based; conditions: in the presence of 14.5 mM glucose; drug concentration 1.0 μM
# Description: Culture of the MIN6 cells and insulin secretion test utilizing the MIN6 cells were performed basically according to the methods described in literature (Ishihara et al., Diabetologia, vol. 36, pp.1139-1145, 1993). The effect of a compound on the insulin secretion in the presence of 14.5 mM glucose was determined by measuring insulin amounts in cell culture supernatants collected as follows. MIN6 cells cultured on a 24-well plate were washed twice by using 1 ml of Buffer A (119 mM sodium chloride, 4.74 mM potassium chloride, 2.54 mM calcium chloride, 1.19 mM magnesium sulfate, 1.19 mM potassium dihydrogenphosphate, 10 mM 2-[4-(2-hydroxyethyl)-1-piperazinyl]ethanesulfonic acid, 0.1% bovine serum albumin, pH 7.3) containing 2 mM glucose, and then were incubated in 1 ml of Buffer A containing 2 mM glucose at 37° C. for 45 minutes. After the incubation, the culture supernatant was changed to Buffer A (0.9 ml) containing a test compound at various concentrations and 2 mM glucose, and the cells were further incubated at 37° C. for 15 minutes. The MIN6 cells were stimulated with glucose by the addition of Buffer A (0.1 ml) containing 127 mM glucose to the culture (final glucose concentration: 14.5 mM). After the stimulation, the cells were further incubated at 37° C. for 45 minutes, and then the culture supernatant was collected.
# Separately, the effect of a compound on the insulin secretion in the presence of 5 mM glucose was determined by measuring insulin amounts in cell culture supernatants collected as follows. MIN6 cells cultured on a 24-well plate were washed twice by using 1 ml of Buffer A containing 5 mM glucose, and then the culture supernatant was changed to Buffer A (0.9 ml) containing a test compound at various concentrations and 5 mM glucose. Then, the cells were incubated at 37° C. for 45 minutes (final glucose concentration: 5 mM), and the culture supernatant was collected.
# After the culture supernatant was diluted with a phosphate buffer containing 1% bovine serum albumin, 0.1% Tween 20, 0.12% disodium ethylenediaminetetraacetate and 0.1% sodium azide, antibody-reactive insulin secreted in the culture supernatant was quantified by enzyme immunoassay or radio immunoassay. […] The results are indicated as averages (avg) for 3 to 4 samples with standard error values (se).
# Wistar male rats [2] = assay: Hyperglycemia suppression action after glucose-loading; format: in vivo; conditions: 30 mg/kg, po
# Description: These rats were used for the experiment after starvation for 18 hours. A test compound was orally administered 1 hour before oral administration of glucose (2 g/kg). Jugular venous blood was collected before the administration of test compound, before the glucose-loading, 5, 10, 15, 30, 45 and 60 minutes after the glucose-loading, and plasma glucose concentration was measured (enzymatic method). The insulin level was indicated as amount of rat insulin (ng/mL).
Compound,% Ratio based on control (area of plasma insulin) (Wistar male rats [1]; 3 mg/kg),"Area of plasma insulin, test compound-administered group (Wistar male rats [1]; 3 mg/kg)",minimum lethal dose (MLD) (dd male mice),Amount of secreted insulin (ng/ml) avg (MIN6 cell),Plasma glucose concentration (Wistar male rats [2]; 0 minute (before glucose-loading)),Plasma glucose concentration (Wistar male rats [2]; 5 minutes after glucose-loading),Plasma glucose concentration (Wistar male rats [2]; 10 minutes after glucose-loading),Plasma glucose concentration (Wistar male rats [2]; 15 minutes after glucose-loading),Plasma glucose concentration (Wistar male rats [2]; 30 minutes after glucose-loading),Plasma glucose concentration (Wistar male rats [2]; 45 minutes after glucose-loading),Plasma glucose concentration (Wistar male rats [2]; 60 minutes after glucose-loading),Plasma glucose concentration (Wistar male rats [2]; −1 minute),% Ratio based on control (area of plasma insulin) (Wistar male rats [1]; 1 mg/kg),"Area of plasma insulin, test compound-administered group (Wistar male rats [1]; 1 mg/kg)"
"CCCN1C(=O)N2C[C@@H](Cc3ccccc3)N=C2c2[nH]c(C3CCCC3)nc21 [Compound 16, (R)-8-benzyl-2-cyclopentyl-7,8-dihydro-4-propyl-1H-imidazo[2,1-i]purin-5(4H)-one hydrochloride]",246 ± 19%,17.28 ± 1.35 ng·s/mL,not less than 300 mg/kg,229.5 ng/mL,102 ± 4.6 mg/dL,147 ± 5.7 mg/dL,183 ± 9.1 mg/dL,186 ± 8.7 mg/dL,167 ± 3.3 mg/dL,165 ± 4.8 mg/dL,178 ± 4.7 mg/dL,114 ± 4.5 mg/dL,,
"CCCN1C(=O)N2CC(Cc3ccc(Br)cc3)N=C2c2[nH]c(C3CCCC3)nc21 (stereo not drawn) [Compound 23, 8-(4-bromobenzyl)-2-cyclopentyl-7,8-dihydro-4-propyl-1H-imidazo[2,1-i]purin-5(4H)-one hydrochloride]",,,,249.9 ng/mL,,,,,,,,,228 ± 50%,11.85 ± 2.58 ng·s/mL
"CCCN1C(=O)N2CC(CCc3ccccc3)N=C2c2[nH]c(C3CCCC3)nc21 (stereo not drawn) [Compound 31, 2-cyclopentyl-7,8-dihydro-8-phenethyl-4-propyl-1H-imidazo[2,1-i]purin-5(4H)-one hydrochloride]",,,,220.5 ng/mL,,,,,,,,,173 ± 16%,9.00 ± 0.84 ng·s/mL
"CCCc1nc2c([nH]1)C1=N[C@H](Cc3ccccc3)CN1C(=O)N2CCC [Compound 35, (R)-8-benzyl-7,8-dihydro-2,4-dipropyl-1H-imidazo[2,1-i]purin-5(4H)-one hydrochloride]",,,,232.4 ng/mL,,,,,,,,,178 ± 23%,15.69 ± 2.04 ng·s/mL
